{"source": "paper PMC11023993", "about": "“Piperine, quercetin, and curcumin identified as promising natural products for topical treatment of cutaneous leishmaniasis” (Parasitology Research, 2024)", "key": {"L. braziliensis [1]": {"test_system": "L. braziliensis", "set-up": "method as in Dos Santos et al. [2022]", "details": "oral 20 mg/kg five times a week, from 7 days after infection for 8 weeks; ref Dos Santos et al. [2022]; cited from earlier work"}, "L. major": {"test_system": "L. major", "set-up": "method as in Almadani et al. [2021]", "details": "oral 50 mg/kg for 28 consecutive days; ref Almadani et al. [2021]; cited from earlier work"}, "[2]": {"test_system": "intracellular amastigotes of L. braziliensis", "test": "In vitro leishmanicidal activity against intracellular amastigotes in infected U-937 macrophages (flow cytometry)", "format": "cell-based, Leishmania braziliensis", "details": "for EC50: Leishmania braziliensis", "method": "Infective L. braziliensis (MHOM/CO/88/UA301-eGFP) (Pulido et al. [2012]) were cultured in Novy-MacNeal-Nicolle (NNN) biphasic medium at 26 °C for 3 passages maximum. U-937 cells, prepared as described in the previous section, were adjusted to approximately 3 × 10^5 cells per mL of supplemented RPMI 1640 medium containing […] of PMA to induce cell adherence. One mL was dispensed into each well of a 24-well plate and platters were incubated at 37 °C in % CO2, 95% humidity atmosphere for 72 h. Then, adherent cells were infected with fluorescent promastigotes of L. braziliensis in a 15:1 parasite to cell ratio. Plates were incubated again at 34 °C and % CO2, 95% humidity atmosphere. After 24 h, non-phagocytosed parasites were washed by pipetting phosphate buffered solution (PBS) in the plate at room temperature and 500 µL of fresh complete RPMI 1640 medium was added. Then, 500 µL of each serial dilution of QUE, PIP, CUR, and amphotericin B was added to each well and plates were incubated at 34 °C with % CO2, 95% humidity atmosphere. The EC50, the median effective concentration to induce […] killing of the intracellular amastigotes in infected cells, was measured by Flow cytometry at 488 nm of excitation and 525 nm of emission. After 48 h of incubation, cells were harvested with cold dissociation buffer (1x PBS with 2% EDTA) and the harvested cells were washed with buffer (1 × PBS with 2% FBS), and results were analyzed by FlowJo 10. The EC50 was determined with a non-lineal regression using Prism GraphPad 10.\nThe LC50 and the EC50 were calculated by Probit analysis using GraphPad Prism 10 (San Diego, CA, USA). Both cytotoxicity and leishmanicidal activity were defined by ranges of values of LC50 and EC50 in terms of high, moderate, or low as follows: high cytotoxicity for LC50 values < 100 µM, moderate cytotoxicity for LC50 values > 100 µM but < 200 µM, and low cytotoxicity for LC50 values > 200 µM. […] In addition, the cytotoxicity in U937 macrophages was correlated with the leishmanicidal activity by calculating the Selectivity Index (SI), using the equation: SI = LC50/EC50 (Indrayanto et al. [2021])."}, "[3]": {"test_system": "L. braziliensis amastigotes", "set-up": "method as in Dos Santos et al. [2022]", "details": "ref Dos Santos et al. [2022], read-out: antiamastigote activity EC50; cited from earlier work"}, "L. braziliensis [4]": {"test_system": "L. braziliensis", "details": "n = 6", "excerpt": "Golden hamsters (Mesocricetus auratus) were purchased from Charles River Laboratories (Wilmington MA, USA) and bred under specific pathogen-free conditions at the animal facility unit of the Universidad de Antioquia in Medellín, Colombia. Six- to eight-week-old, male, and female hamsters were used for the experiments. Animal experimentation protocols including handling of the animals, sample collection, and euthanasia were done in compliance of the Center for Diseases Control and Prevention guidelines for Safe Work Practices in Human and Animal Medical Diagnostic Laboratories and ARRIVE guidelines (Percie du Sert et al. [2020b]; Khairani et al. [2022]) and approved by the Institutional Ethical Committee for animal experimentation (Act No. 152 of June 01, 2023) (Percie du Sert et al. [2020a]; Khairani et al. [2022]).\nHamsters were anesthetized with ketamine (80 mg/kg, i.p.) and xylazine (15 mg/Kg) before infection and then, ∼1 × 10^8 promastigotes in stationary phase (6 days-old growth) were inoculated into the dorsum dermis (Robledo et al. [2012]). When hamsters developed ulcers larger than 12.5 mm^2, hamsters were randomly distributed into 4 groups (n = 6, each): (1) group treated with QUE (1 mg/day), (2) group treated with PIP (2.5 mg/day), (3) group treated with CUR (1.5 mg/day), (4) group treated with meglumine antimoniate (treatment control group, 200 µg/mL, intralesional). No vehicle control group was included in the present study because castor oil additive is a nonionic surfactant commonly used as an excipient in pharmaceutical formulations, particularly in solubilizing poorly water-soluble drugs. It is widely used as an ingredient in cosmetics for its conditioning properties, based on occlusive action, reducing water loss, and having a nourishing effect on the skin, hair, and nails (Marwat et al. [2017]; Khairani et al. [2022]).\nHamsters were treated daily with 40 µL of the corresponding formulation for 2 weeks, applying it directly over the lesion, while hamsters treated with meglumine antimoniate received treatment three times per week for 4 weeks. Lesion area was measured every week for 90 days with an electronic digital caliper. The body weight gain or loss was supervised every 2 weeks during the study. At the end of the study, hamsters were euthanized with an i.p. injection of ketamine (600 mg/kg) and xylazine (30 mg/kg). The experiments were carried out under normal laboratory lighting conditions. After necropsy, biopsies from healed and unhealed ulcers were removed and fixed in 10% buffered formalin, processed, and stained with hematoxylin–eosin (H-E) stain for histopathology analysis. The changes were analyzed under a standard optical microscope."}, "macrophages": {"test_system": "macrophages", "set-up": "method as in Dos Santos et al. [2022]", "details": "ref Dos Santos et al. [2022], cited from earlier work"}, "[5]": {"test_system": "L. braziliensis-induced cutaneous leishmaniasis ulcers", "test": "Histopathological analysis (H-E) of healed ulcers from treated hamsters", "format": "in vivo, golden hamsters (Mesocricetus auratus)", "set-up": "key to Dermis: oedema (grade) / Dermis: granulomatous inflammation (grade) / Epidermis: orthokeratotic hyperkeratosis (grade) / Epidermis: spongiosis (grade) / Epidermis: ulcer (grade) / Dermis: neovascularization (grade) / Dermis: fibroplasia (grade) / Dermis: leukocytic infiltrate (grade): 0, absent; 1, mild; 2, mild to moderate; 3, moderate; 4, moderate to severe; 5, severe", "method": "The changes were analyzed under a standard optical microscope."}, "[6]": {"details": "healed ulcer after topical treatment"}}, "note": "Read-outs that look alike come from different tables or passages of the source.", "data": [{"compound": "O=c1c(O)c(-c2ccc(O)c(O)c2)oc2cc(O)cc(O)c12", "note": "[Quercetin, quercetin]", "values": [{"measurement": "lesion size and parasite load (lesion and draining lymph node)", "setting": "L. braziliensis [1]", "value": "effectively controlled the lesion size and reduced the parasite load"}, {"measurement": "histopathological analysis of tissue sections", "setting": "L. major", "value": "reduction in inflammatory cell count, an increase in fibroblasts, and enhanced collagen deposition"}, {"measurement": "SI (Selectivity Index = LC50/EC50)", "setting": "[2]; LC50 U-937 / EC50 L. braziliensis amastigotes", "value": "> 20.6"}, {"measurement": "EC50", "setting": "[2]; U-937, amastigote stage of L. braziliensis, read-out: in vitro antileishmanial activity (EC50 in mass units)", "value": "9.7 ± 0.6", "unit": "µg/mL"}, {"measurement": "EC50", "setting": "[2]; intracellular amastigotes of L. braziliensis in U-937 macrophages, 48 h, read-out: EC50 (Median Effective Concentration)", "value": "32 ± 2", "unit": "µM"}, {"measurement": "Leishmanicidal activity", "setting": "[2]; class by EC50 on intracellular amastigotes of L. braziliensis", "value": "High (high activity corresponds to EC50 values < 50 µM)"}, {"measurement": "EC50", "setting": "[3]", "value": "21 ± 2.5", "unit": "µM"}, {"measurement": "treatment failures", "setting": "L. braziliensis [4]; topical daily for 15 days", "value": "No failures"}, {"measurement": "therapeutic response (hamsters cured)", "setting": "L. braziliensis [4]; topical in castor oil daily for 15 days, QUE 1 mg/day, CUR 1.5 mg/day, PIP 2.5 mg/day, followed 90 days", "value": 100, "unit": "%"}, {"measurement": "concentration giving substantial decrease in macrophage viability", "setting": "macrophages", "value": "exceeding 640 µM"}, {"measurement": "EC50", "setting": "macrophages; read-out: macrophage viability, estimated EC50", "value": "478 ± 89", "unit": "µM"}, {"measurement": "granulomas and amastigotes in healed skin", "setting": "[5]; H-E stain, healed skin after topical treatment", "value": "No amastigotes are observed"}, {"measurement": "Dermis: fibroplasia (grade)", "setting": "[5]; [6]", "value": 3}, {"measurement": "Dermis: granulomatous inflammation (grade)", "setting": "[5]; [6]", "value": 0}, {"measurement": "Dermis: leukocytic infiltrate (grade)", "setting": "[5]; [6]", "value": 3}, {"measurement": "Dermis: neovascularization (grade)", "setting": "[5]; [6]", "value": 2}, {"measurement": "Dermis: oedema (grade)", "setting": "[5]; [6]", "value": 2}, {"measurement": "Epidermis: orthokeratotic hyperkeratosis (grade)", "setting": "[5]; [6]", "value": 2}, {"measurement": "Epidermis: spongiosis (grade)", "setting": "[5]; [6]", "value": 2}, {"measurement": "Epidermis: ulcer (grade)", "setting": "[5]; [6]", "value": 0}]}]}
